The text below walks through data of US11162063B2, “Methods and apparatus for conditioning cell populations for cell therapies” (THE BOARD OF REGENTS OF THE UNIVERSITY OF TEXAS SYSTEM, priority 2015, dated 2021).

Assay [1] concerns TNF-α secretion by activated splenocytes. Nature of the assay: TNF-α cytokine suppression assay, MSC co-culture with LPS or PHA-activated splenocytes. The assay is classed as cell-based, mouse. Particulars: 10 μM; for effect on the ability of shear treated MSC to suppress TNF-α production: six MSC donor lines. The source says: FIG. 22 illustrates TNF-α cytokine suppression assays that highlight functional enhancement of MSC immunomodulation. Human MSCs preconditioned by mechanical force (15 dyne/cm2 shear stress for 3 hrs) are placed in static co-culture with lipopoly-saccharide (LPS) or phytohaemagglutinin (PHA)-activated splenocytes including macrophages, neutrophils, NK, B, and T cells. […] Lower values correspond to greater anti-inflammatory potency. hBM MSC, human bone marrow MSC; hAF MSC, amniotic fluid MSC (indicated by a “*” in graph); hAD MSC, adipose-derived MSC (indicated by a “^” in graph). P-values calculated by paired t-test, equal variance.
(§1) Similarly it was determined utilizing commercially available ELISAs that the media from human MSCs cultures that had been subject to fluid shear stress also contained immunomodulatory proteins, such as prostaglandin E2. In addition, Western blotting confirmed elevated protein levels (translation) of COX2, TSG6, and IL1RN. Actin protein expression levels, which are constant, were used as a control for baseline protein expression. […] It was also determined that this induction could be abrogated by the addition of 10 uM of the NF-kappaB antagonist BAY11-7085 (FIG. 21). Furthermore by utilizing commercially available ELISAs, it was determined that the media from human MSCs cultures that had been subject to fluid shear stress for as little as 3 hours had immunosuppressive activity, as evidenced by the 10-50% reduction in TNF-α when treated hMSCs were co-cultured with activated immune cells from the spleen (FIG. 22).

Assay [2] concerns COX2 protein in human MSC. Nature of the assay: Western blot of intracellular COX2 protein in shear stressed MSCs. The assay is classed as cell-based. Particulars: 10 μM, 8 hours of fluid shear stress. On the procedure: A pilot study was conducted to provide proof of principle that fluid shear stress can be used to condition stem cells, alter gene expression, and enhance functional activities. To exemplify the conditioning activity of shear stress of the type provided by the present system, but on a much smaller analytical scale, force (shear stress) was applied using custom fabricated slides or IBIDI® small-scale microfluidics channel slides obtained from IBIDI, LLC. (Verona, Wis., USA). Human samples were harvested from bone marrow (BM), amniotic fluid (AF), or adipose (AD) tissue, processed for isolation and expansion of hMSC, and stored frozen. Frozen hMSCs were thawed and seeded into T225 cell culture flasks with 50 ml Minimum Essential Medium (MEM-α) (20% FBS, 5% Penicillin/Streptomycin, 5% Glutamine). The media was replaced every 3-4 days. hMSCs were maintained in culture until they were almost 100% confluent. […] The number of live cells present was determined using trypan blue dye exclusion. Live cell counts were determined on a hemacytometer and the cells were resuspended to obtain the desired concentration for each assay (see Table 1). […]
Similarly it was determined utilizing commercially available ELISAs that the media from human MSCs cultures that had been subject to fluid shear stress also contained immunomodulatory proteins, such as prostaglandin E2. […]
On the technique in general: In western blotting, separated proteins are transferred to a membrane and probed.

Assay [3] deals with human amniotic fluid MSC. Nature of the assay: Priming agents combined with shear stress, anti-inflammatory signaling in hAF MSC. The assay is classed as cell-based. The procedure:
FIG. 24 illustrates that priming agents complement shear-induced anti-inflammatory signaling. Darkened bars represent treatment combinations that indicate a substantial induction of the pathway by shear stress and cytokines (IFN-γ, 20 ng/ml; TNF-α, 50 ng/ml). In this low-performance human amniotic MSC line, TSG6 was induced by shear stress only. IDO was induced by IFN-γ only. hAF MSC, human amniotic fluid MSC.
as §1

“Also recorded” adds a separate entry of the source.

As for `CC(C)(C)c1ccc(S(=O)(=O)/C=C/C#N)cc1` [BAY11-7085], in assay [1], the “effect on the ability of shear treated MSC to suppress TNF-α production” value (from here on “effect on the ability”) was “abrogate the positive effects of shear stress”. For the same compound, the “effect on shear-induced COX2 protein” value in assay [2] was “abrogated; also recorded: reduced”.
As for `COc1ccc2c(c1)c(CC(=O)O)c(C)n2C(=O)c1ccc(Cl)cc1` [Indomethacin], the “effect on the ability” value in assay [1] is listed as “abrogate the positive effects of shear stress”.
As for `CS(=O)(=O)Nc1ccc([N+](=O)[O-])cc1OC1CCCCC1` [NS-398], the “effect on the ability” value in assay [1] was “abrogate the positive effects of shear stress”.
As to `CCCCC(C)(C)C(O)C=CC1C(O)CC(=O)C1CC=CCCCC(=O)O` (stereo not shown) [dmPGE2, 16,16′-dimethyl prostaglandin E2], the “effect of ectopic agent on TNF-α production” value in assay [1] (compared with sheared MSCs) was “reduced TNF-α to levels produced in the presence of sheared MSCs; also recorded: mimics MSC suppression”.
In the case of IFN-γ: cytokine priming agent, 20 ng/ml, the “induction of COX2 and HMOX1 in sheared MSCs with added priming agent” value in assay [3] (IFN-γ 20 ng/ml plus shear stress) is “greater induction”. In addition, the IDO induction result in assay [3] (IFN-γ 20 ng/ml, low-performance human amniotic MSC line) was “induced”.
